{"source": "patent US20180094019A1", "about": "“CRYSTALLINE FORMS OF MODIFIED TRITERPENOID HYDROCHLORIDE SALTS WITH HIV MATURATION INHIBITOR ACTIVITY” (VIIV HEALTHCARE UK (NO.4) LIMITED, priority 2015, published 2018)", "key": {"[1]": {"assay": "Dehydration of form H-4 to anhydrous form P44 on drying / sensitivity to relative humidity", "format": "physicochemical", "protocol": "Additionally, the ternary solvent mixture THF/water/MeCN can be used. If the resultant H-4 form is dried at a temperature greater than 60° C., then it converts to an anhydrous form of H-4, designated as P44. […] In practice, to minimize conversion to the P44 form, the drying can be conducted under a stream of humidified nitrogen gas."}, "[2]": {"assay": "Relationship of the crystalline forms: relative thermodynamic stability and critical water activity", "format": "physicochemical", "conditions": "ambient conditions; T1F-2 compared with T1F-1", "text": "Herein we describe three crystalline forms of the monohydrochloride salt, Compound I, that have been prepared and identified: the monohydrochloride monohydrate H-4 form and two monohydrochloride forms designated as […]-1 and […]-2. […] The critical water activity between the […]-2 and H-4 forms is in the range 0.05-0.24."}}}
{"molecule": "C=C(C)[C@@H]1CC[C@]2(NCCN3CCS(=O)(=O)CC3)CC[C@]3(C)[C@H](CC[C@@H]4[C@@]5(C)CC=C(c6ccc(C(=O)O)cc6)C(C)(C)[C@@H]5CC[C@]43C)[C@@H]12.Cl", "note": "[Form H-4, 4-((1R,3aS,5aR,5bR, 7aR, 11aS,11bR,13aR,13bR)-3a-((2-(1,1-dioxidothiomorpholino)ethyl)amino)-5a,5b,8,8,11a-pentamethyl-1-(prop-1-en-2-yl)-2,3,3a,4,5,5a,5b,6,7,7a,8, 11,11a,11b, 12,13,13a,13b-octadecahydro-1H-cyclopenta[a]chrysen-9-yl)benzoic acid hydrochloride hydrate]", "values": [{"measurement": "sensitivity to relative humidity", "setting": "[1]", "result": "sensitive to relative humidity"}, {"measurement": "drying temperature at which H-4 converts to anhydrous form P44", "setting": "[1]; drying of the resultant H-4 form", "result": "greater than 60 °C"}, {"measurement": "temperature of dehydration to the P44 form", "setting": "[1]; under a stream of dry nitrogen gas", "result": "≥ 30", "unit": "°C"}]}
{"molecule": "C=C(C)[C@@H]1CC[C@]2(NCCN3CCS(=O)(=O)CC3)CC[C@]3(C)[C@H](CC[C@@H]4[C@@]5(C)CC=C(c6ccc(C(=O)O)cc6)C(C)(C)[C@@H]5CC[C@]43C)[C@@H]12.Cl", "note": "[Form T1F-2, 4-((1R,3aS,5aR,5bR, 7aR, 11aS,11bR,13aR,13bR)-3a-((2-(1,1-dioxidothiomorpholino)ethyl)amino)-5a,5b,8,8,11a-pentamethyl-1-(prop-1-en-2-yl)-2,3,3a,4,5,5a,5b,6,7,7a,8, 11,11a,11b, 12,13,13a,13b-octadecahydro-1H-cyclopenta[a]chrysen-9-yl)benzoic acid hydrochloride]", "values": [{"measurement": "relative thermodynamic stability of the crystalline forms", "setting": "[2]", "result": "thermodynamically more stable than T1F-1 form"}]}
